Measurements as given in US20110182871A1, “NOVEL MICROORGANISM AND PLANT DISEASE CONTROL AGENT USING THE MICROORAGNISM” (UNIVERSITY OF YAMANASHI, priority 2008, published 2011).

How the values were obtained:
[1] = test system: Bacillus subtilis strain KS1; assay: Drug resistance test: growth of strain KS1 on YBS medium containing a chemical pesticide; type: cell-based; details: 37° C., 2 days
Method: (§1) In this example, a test for resistance of Bacillus subtilis strain KS1 to chemical pesticides was performed. First, the YBS medium (one containing yeast extract and meat extract in agar) containing the chemical pesticide of interest was prepared in a petri dish. The concentration (ppm) of the chemical pesticide at this time was the same as a general application concentration. Next, Bacillus subtilis strain KS1 was smeared on the surface of the above-mentioned medium containing the chemical pesticide and incubated at 37° C. for 2 days. As a control area, a test for resistance of Bacillus subtilis isolated from a Botokiller water dispersible powder to chemical pesticides was performed in parallel. In this case, the suspension of the Botokiller water dispersible powder was spread on the YBS medium and the bacteria that appeared after overnight incubation at 37° C. were considered as the bacteria constituting a Botokiller water dispersible powder. In the resistance test, the bacteria constituting a Botokiller water dispersible powder were smeared on the surface of the medium containing a chemical pesticide and incubated at 37° C. for 2 days, as is the case with the above-mentioned Bacillus subtilis strain KS1. […]

[2] = test system: B. subtilis used in a Botokiller water dispersible powder; assay: Drug resistance test: growth of the bacteria constituting a Botokiller water dispersible powder on YBS medium containing a chemical pesticide; type: cell-based, Bacillus subtilis; details: 37° C., 2 days
Method: as §1

Q: What does the source list for S=C([S-])NCCNC(=S)[S-].[Mn+2] [Maneb]?
A: Resistance of Bacillus subtilis strain KS1 to the chemical pesticide (in words) [1]: showed resistance; Resistance of the bacteria constituting a Botokiller water dispersible powder to the chemical pesticide (in words) [2]: showed no resistance
